From patent US20250282795A1, “EGFR Inhibitors in cancer treatment” (Celyn Therapeutics, Inc., priority 2022, published 2025)

Columns and labels:
Assay type in all cases: cell-based
Ba/F3 (A767_dupASV) = test: Cellular growth inhibition assay (CellTiter-Glo), Ba/F3 (A767_dupASV); conditions: Mus musculus, BaF3, 72 h; 3 days of incubation; read-out: Ba/F3 (A767_dup ASV) CC50
Description: (§1) Example E. Cellular Growth Inhibition Assay
(§2) Ba/F3(Empty vector) (Signosis), Ba/F3(Wild type) (Signosis), Ba/F3(L^858R+T790M) (Signosis), Ba/F3(A767_dupASV) (Signosis), Ba/F3(D770_N771insSVD) (Signosis), Ba/F3(H773_V774insNPH) (Signosis) were seeded at a density of 4000 cells per well in a CellBIND® 384-well Flat Clear Bottom Black Polystyrene Microplates (Coming, USA, Cat #3770) in 45 μl total volume of RPMI (PanEco, Cat #C330, Russia) with […] (HyClone, Cat #SV30160.03) and with 10 ng/ml rmIL-3 (RD systems, USA, Cat #403-ML-025) (for BaBF3(Empty vector)) and with 10 ng/ml rhEGF (ThermoFisher, USA, Cat #PHG0311L) (for BaCF3(Wild type)). 500× compounds solutions in DMSO (Sigma Cat #D2650) were prepared into Cmpnds plate (DiamondWell Plate, Axigen, Cat #P-384-120SQ-C—S) and DMSO only control was included. 1.l of 500× compounds (Cmpnds plate) was added to 49 µl of culture medium into Dilution plate (Diamond Well Plate, Axigen, Cat #P-384-120SQ-C—S), mixed and then 5 μl of 10× compounds solutions were transferred to cells followed by centrifugation at 100 g for 1 min. Final DMSO concentration was 0.2% o. After 3 days of incubation 10.l of CellTiter-Glo (Promega, CAT #G7572) were added to the cells, plate was centrifuged at 100 g for 1 min and luminescence signal was measured using Microplate Reader (CLARIOStar).

Ba/F3 (H773_V774insSVD) = test: Cellular growth inhibition assay (CellTiter-Glo), Ba/F3 (H773_V774insSVD); conditions: Mus musculus, BaF3, 72 h; 3 days of incubation; read-out: Ba/F3 (H773_V774 insSVD) CC50
Ba/F3 (L858R + T790M) = test: Cellular growth inhibition assay (CellTiter-Glo), Ba/F3 (L858R+T790M); conditions: Mus musculus, BaF3, 72 h; 3 days of incubation
Description: as §1, §2

Ba/F3 (D770_N771insSVD) = test: Cellular growth inhibition assay (CellTiter-Glo), Ba/F3 (D770_N771insSVD); conditions: Mus musculus, BaF3, 72 h; 3 days of incubation; read-out: Ba/F3 (D770_N771 insSVD) CC50
Description: as §1, §2

[1] = Cellular growth inhibition assay (CellTiter-Glo), Ba/F3 (Empty vector); conditions: mouse, Ba/F3 cells with empty vector; Ba/F3 (Empty vector) with 10 ng/ml rmIL-3, 3 days of incubation
Description: as §1, §2

Row | Compound | CC50 (Ba/F3 (A767_dupASV)) | CC50 (Ba/F3 (H773_V774insSVD)) | CC50 (Ba/F3 (L858R + T790M)) | CC50 (Ba/F3 (D770_N771insSVD)) | CC50 at 3 days [1]
1 | COc1c(F)cccc1Nc1c2[nH]c3c1C(=O)NC[C@@H]3CCCN1CC[C@@H](COc3cnccc3-2)C1 (stereo in doubt) [Compound 162, 20-[(3-Fluoro-2-methoxyphenyl)amino]-6,7,8,9,11,12,13,13a,14,15-decahydro-7,10-methano-17,19-methenodipyrido[3,4-b:4′,3′-f][1,5,11]oxadiazacyclopentadecin-16(18H)-one] | > 10 µM | > 10 µM | > 10 µM | > 10 µM | > 10 µM
2 | COc1c(F)cccc1Nc1c2[nH]c3c1C(=O)NC[C@H]3CCCN1CC[C@@H](COc3cnccc3-2)C1 (stereo in doubt) [Compound 163, 20-[(3-Fluoro-2-methoxyphenyl)amino]-6,7,8,9,11,12,13,13a,14,15-decahydro-7,10-methano-17,19-methenodipyrido[3,4-b:4′,3′-f][1,5,11]oxadiazacyclopentadecin-16(18H)-one] | 0.01 to 0.1 µM | 0.1 to 1 µM | > 10 µM | 0.1 to 1 µM | > 10 µM
3 | COc1c(F)cccc1Nc1c2[nH]c3c1C(=O)NCC3CCCN1CCCC(COc3cnccc3-2)C1 (centres unmarked) [Compound 12, 21-[(3-Fluoro-2-methoxyphenyl)amino]-7,8,9,10,12,13,14,14a,15,16-decahydro-6H-7,11-methano-18,20-methenodipyrido[3,4-b:4′,3′-f][1,5,11]oxadiazacyclohexadecin-17(19H)-one] | 0.1 to 1 µM | > 10 µM | > 10 µM | 1 to 10 µM | > 10 µM
4 | COc1c(F)cccc1Nc1c2[nH]c3c1C(=O)NCC3CCCCCOc1cnccc1-2 (centres unmarked) [Compound 101, 1^3-((3-Fluoro-2-methoxyphenyl)amino)-1^4,1^5,1^6,1^7-tetrahydro-l^1H-3-oxa-1(2,7)-pyrrolo[3,2-c]pyridina-2(4,3)-pyridinacyclooctaphan-1^4-one] | 0.01 to 0.1 µM | 0.1 to 1 µM | 1 to 10 µM | 0.1 to 1 µM | > 10 µM
5 | COc1c(F)cccc1Nc1c2[nH]c3c1C(=O)NCC3CCCCN1CC(COc3cnccc3-2)C1 (centres unmarked) [Compound 123, 20-(3-fluoro-2-methoxyanilino)-7,8,11,12,13,13a,14,15-octahydro-6H,10H-7,9-methano-17,19-(metheno)dipyrido[3,4-b: 4′,3′-f][1,5,12]oxadiazacyclopentadecin-16(18H)-one] | 0.001 to 0.01 µM | 0.1 to 1 µM | 0.1 to 1 µM | 0.01 to 0.1 µM | 1 to 10 µM
6 | COc1c(F)cccc1Nc1c2[nH]c3c1C(=O)NC(CCCCOCCOc1cnccc1-2)C3 (centres unmarked) [Compound 133, 20-(3-fluoro-2-methoxyanilino)-2,3,5,6,7,8,9,10-octahydro-9,13-methano-12,15-(metheno)pyrido[3,4-e][1,4,8,12]dioxadiazacycloheptadecin-11(14H)-one] | 1 to 10 µM | > 10 µM | > 10 µM | > 10 µM | > 10 µM
7 | COc1c(F)cccc1Nc1c2[nH]c3c1C(=O)NCC3CC=CCN1CCC(CC1)COc1cnccc1-2 (centres unmarked) [Compound 135, 21-(3-fluoro-2-methoxyanilino)-6,7,8,9,14,14a,15,16-octahydro-11H-7,10-ethano-18,20-(metheno)dipyrido[3,4-b: 4′,3′-f][1,5,12]oxadiazacyclohexadecin-17(19H)-one] | > 10 µM | > 10 µM | > 10 µM | > 10 µM | > 10 µM
8 | COc1c(F)cccc1Nc1c2[nH]c3c1C(=O)NCC3CCCCN1CCC(CC1)COc1cnccc1-2 (centres unmarked) [Compound 136, 21-[(3-Fluoro-2-methoxyphenyl)amino]-6,7,8,9,12,13,14,14a,15,16-decahydro-11H-7,10-ethano-18,20-methenodipyrido[3,4-b:4′,3′-f][1,5,12]oxadiazacyclohexadecin-17(19H)-one] | 1 to 10 µM | > 10 µM | > 10 µM | > 10 µM | > 10 µM
9 | COc1c(F)cccc1Nc1c2[nH]c3c1C(=O)NCC3CCCOCCCCCCN1CCC(CC1)Oc1cnccc1-2 (centres unmarked) [Compound 137, 28-(3-fluoro-2-methoxyanilino)-1,2,13,14,16,17,18,19,20,21,23,24,25,25a-tetradecahydro-12H-12,15-ethano-4,6-(metheno)dipyrido[3,4-b: 4′,3′-f][1,11,5,18]dioxadiazacyclohenicosin-3(5H)-one] | 0.1 to 1 µM | 1 to 10 µM | 1 to 10 µM | 1 to 10 µM | > 10 µM
10 | COc1c(F)cccc1Nc1c2[nH]c3c1C(=O)NCC3CC(=O)N1CC(CCOc3cnccc3-2)C1 (centres unmarked) [Compound 139, 19-(3-fluoro-2-methoxyanilino)-6,7,8,9,12,12a,13,14-octahydro-11H-8,10-methano-16,18-(metheno)dipyrido[3,4-b: 4′,3′-f][1,5,10]oxadiazacyclotetradecine-11,15(17H)-dione] | 0.1 to 1 µM | 1 to 10 µM | > 10 µM | 1 to 10 µM | > 10 µM
11 | COc1c(F)cccc1Nc1c2[nH]c3c1C(=O)NCC3CC(=O)N[C@@H](C)C(=O)NCCCOc1cnccc1-2 (stereo partly drawn) [Compound 140, (11S)-21-(3-fluoro-2-methoxyanilino)-11-methyl-6,7,8,9,11,12,14,14a,15,16-decahydro-18,20-(metheno)dipyrido[3,4-k: 4′,3′-o][1,5,8,13]oxatriazacyclohexadecine-10,13,17(19H)-trione] | 1 to 10 µM | > 10 µM | > 10 µM | > 10 µM | > 10 µM
12 | COc1c(F)cccc1Nc1c2[nH]c3c1C(=O)NCC3CC(=O)N[C@H](C)C(=O)NCCCOc1cnccc1-2 (stereo partly drawn) [Compound 141, (11R)-21-(3-fluoro-2-methoxyanilino)-11-methyl-6,7,8,9,11,12,14,14a,15,16-decahydro-18,20-(metheno)dipyrido[3,4-k: 4′,3′-o][1,5,8,13]oxatriazacyclohexadecine-10,13,17(19H)-trione] | 0.1 to 1 µM | > 10 µM | > 10 µM | 1 to 10 µM | > 10 µM
13 | COc1c(F)cccc1Nc1c2[nH]c3c1C(=O)NCC3CCCOCCNCCCOc1cnccc1-2 (centres unmarked) [Compound 143, 22-(3-fluoro-2-methoxyanilino)-6,7,8,9,10,11,13,14,15,15a,16,17-dodecahydro-19,21-(metheno)dipyrido[3,4-i: 4′,3′-m][1,8,4,12]dioxadiazacycloheptadecin-18(20H)-one] | > 10 µM | > 10 µM | > 10 µM | > 10 µM | > 10 µM
14 | COc1c(F)cccc1Nc1c2[nH]c3c1C(=O)NC[C@H]3CCCN1CCO[C@H](COc3cnccc3-2)C1 [Compound 158, (7S)-21-[(3-Fluoro-2-methoxyphenyl)amino]-6,7,9,10,12,13,14,14a,15,16-decahydro-7,11-methano-18,20-methenodipyrido[3,4-k:4′,3′-o][1,4,7,13]dioxadiazacyclohexadecin-17(19H)-one] | 0.1 to 1 µM | 1 to 10 µM | > 10 µM | 1 to 10 µM | 1 to 10 µM
15 | COc1c(F)cccc1Nc1c2[nH]c3c1C(=O)NCC3CCCCN(C(C)C)CCOc1cnccc1-2 (centres unmarked) [Compound 159, 19-(3-fluoro-2-methoxyanilino)-8-(propan-2-yl)-6,7,8,9,10,11,12,12a,13,14-decahydro-16,18-(metheno)dipyrido[3,4-i: 4′,3′-m][1,4,11]oxadiazacyclotetradecin-15(17H)-one] | 0.1 to 1 µM | 1 to 10 µM | > 10 µM | 1 to 10 µM | > 10 µM
16 | COc1c(F)cccc1Nc1c2[nH]c3c1C(=O)NCC3CCCN1CC(COc3cnccc3-2)C1 (centres unmarked) [Compound 160, 19-[(3-Fluoro-2-methoxyphenyl)amino]-7,8,10,11,12,12a,13,14-octahydro-6H-7,9-methano-16,18-methenodipyrido[3,4-b:4′,3′-f][1,5,11]oxadiazacyclotetradecin-15(17H)-one] | 0.1 to 1 µM | 1 to 10 µM | > 10 µM | 1 to 10 µM | > 10 µM
